Measured values as given in US20160185774A1, “Anti-Infective Compounds” (priority 2013, published 2016).
In brackets after ≈: the same amount, converted by molar mass.

Test system: M. tuberculosis
Test: microbe, parasite or virus in culture
Format: cell-based
Details: Mycobacterium tuberculosis, 120 h; read-out: QUM (MIC80)

Row | Compound | MIC80
1 | CCc1nc2ccc(Br)cn2c1C(=O)NCc1ccc(N2CCC(c3ccccc3)CC2)cc1 [Compound 1] | < 1 µM
2 | CCc1nc2ccc(Br)cn2c1C(=O)NCc1ccc(N2CCC(c3ccc(OC)cc3)CC2)cc1 [Compound 2] | < 1 µM
3 | CCc1nc2cc(C(F)(F)F)ccn2c1C(=O)NCc1ccc(N2CCC(c3ccccc3)CC2)cc1 [Compound 3] | < 1 µM
4 | CCc1nc2cc(C(F)(F)F)ccn2c1C(=O)NCc1ccc(N2CCC(c3ccc(F)cc3)CC2)cc1 [Compound 4] | < 1 µM
5 | CCc1nc2cc(F)ccn2c1C(=O)NCc1ccc(N2CCC(c3ccc(C)cc3)CC2)cc1 [Compound 5] | < 1 µM
6 | CCc1nc2c(F)cccn2c1C(=O)NCc1ccc(N2CCC(c3ccc(C)cc3)CC2)cc1 [Compound 6] | < 1 µM
7 | CCc1nc2ccc(Cl)cn2c1C(=O)NCc1ccc(N2CCC(c3ccc(C)cc3)CC2)cc1 [Compound 7] | < 1 µM
8 | CCc1nc2c(C)cccn2c1C(=O)NCc1ccc(N2CCC(c3ccc(OC)cc3)CC2)cc1 [Compound 8] | < 1 µM
9 | CCc1nc2ccc(C)cn2c1C(=O)NCc1ccc(N2CCN(c3ccccc3)CC2)cc1 [Compound 9] | < 1 µM
10 | CCc1nc2cc(OC)ccn2c1C(=O)NCc1ccc(N2CCN(c3ccc(OC(F)(F)F)cc3)CC2)cc1 [Compound 10] | < 1 µM
11 | CCc1nc2ccc(F)cn2c1C(=O)NCc1ccc(N2CCC(c3ccc(C(F)(F)F)cc3)CC2)cc1 [Compound 11] | < 1 µM
12 | CCc1nc2c(F)cccn2c1C(=O)NCc1ccc(N2CCC(c3ccc(C(F)(F)F)cc3)CC2)cc1 [Compound 12] | < 1 µM
13 | CCc1nc2cc(Cl)ccn2c1C(=O)NCc1ccc(N2CCC(c3ccc(C(F)(F)F)cc3)CC2)cc1 [Compound 13] | < 1 µM
14 | CCc1nc2cc(F)ccn2c1C(=O)NCc1ccc(N2CCC(c3ccc(OC)cc3)CC2)cc1 [Compound 14] | < 1 µM
15 | CCc1nc2c(F)cccn2c1C(=O)NCc1ccc(N2CCC(c3ccc(OC)cc3)CC2)cc1 [Compound 15] | < 1 µM
16 | CCc1nc2ccc(Cl)cn2c1C(=O)NCc1ccc(N2CCC(c3ccc(OC)cc3)CC2)cc1 [Compound 16] | < 1 µM
17 | CCc1nc2cc(F)ccn2c1C(=O)NCc1ccc(N2CCC(c3ccc(Cl)cc3)CC2)cc1 [Compound 17] | < 1 µM
18 | CCc1nc2cc(OC)ccn2c1C(=O)NCc1ccc(N2CCC(c3ccccc3)CC2)cc1 [Compound 18] | < 1 µM
19 | CCc1nc2ccc(C)cn2c1C(=O)NCc1ccc(N2CCC(c3ccc(F)cc3)CC2)cc1 [Compound 19] | < 1 µM
20 | CCc1nc2cc(OC)ccn2c1C(=O)NCc1ccc(N2CCC(c3ccc(F)cc3)CC2)cc1 [Compound 20] | < 1 µM
21 | CCc1nc2cc(OC)ccn2c1C(=O)NCc1ccc(N2CCC(c3ccc(Cl)cc3)CC2)cc1 [Compound 21] | < 1 µM
22 | CCc1nc2c(C(F)(F)F)cccn2c1C(=O)NCc1ccc(N2CCC(c3ccc(Cl)cc3)CC2)cc1 [Compound 22] | 1 to 20 µM (≈ 0.541 to 10.8 µg/mL)
23 | CCc1nc2cc(OC)ccn2c1C(=O)NCc1ccc(N2CCC(c3ccc(C)cc3)CC2)cc1 [Compound 23] | < 1 µM
24 | CCc1nc2cc(C(F)(F)F)ccn2c1C(=O)NCc1ccc(N2CCC(c3ccc(C)cc3)CC2)cc1 [Compound 24] | < 1 µM
25 | CCc1nc2c(C(F)(F)F)cccn2c1C(=O)NCc1ccc(N2CCC(c3ccc(C)cc3)CC2)cc1 [Compound 25] | 1 to 20 µM (≈ 0.521 to 10.4 µg/mL)
26 | CCc1nc2cc(C(F)(F)F)ccn2c1C(=O)NCc1ccc(N2CCC(c3ccc(C(F)(F)F)cc3)CC2)cc1 [Compound 26] | < 1 µM

Row | Compound | MIC80
27 | CCc1nc2c(C(F)(F)F)cccn2c1C(=O)NCc1ccc(N2CCC(c3ccc(OC)cc3)CC2)cc1 [Compound 27] | 1 to 20 µM (≈ 0.537 to 10.7 µg/mL)
28 | CCc1nc2ccccn2c1C(=O)NCc1ccc(N2CCN(c3ccc(C)cc3)CC2)cc1 [Compound 28] | < 1 µM
29 | CCc1nc2ccccn2c1C(=O)NCc1ccc(N2CCN(c3ccc(C(F)(F)F)cc3)CC2)cc1 [Compound 29] | < 1 µM
30 | CCc1nc2ccccn2c1C(=O)NCc1ccc(N2CCN(c3ccc(OC)cc3)CC2)cc1 [Compound 30] | < 1 µM
31 | CCc1nc2c(F)cccn2c1C(=O)NCc1ccc(N2CCN(c3ccc(C)cc3)CC2)cc1 [Compound 31] | < 1 µM
32 | CCc1nc2c(F)cccn2c1C(=O)NCc1ccc(N2CCN(c3ccc(OC)cc3)CC2)cc1 [Compound 32] | < 1 µM
33 | CCc1nc2ccc(Cl)cn2c1C(=O)NCc1ccc(N2CCN(c3ccc(OC)cc3)CC2)cc1 [Compound 33] | < 1 µM
34 | CCc1nc2c(Br)cccn2c1C(=O)NCc1ccc(N2CCC(c3ccc(C)cc3)CC2)cc1 [Compound 34] | 1 to 20 µM (≈ 0.531 to 10.6 µg/mL)
35 | CCc1nc2cc(Cl)ccn2c1C(=O)NCc1ccc(N2CCN(c3ccc(C)cc3)CC2)cc1 [Compound 35] | < 1 µM
36 | CCc1nc2ccc(Cl)cn2c1C(=O)NCc1ccc(N2CCN(c3ccc(C)cc3)CC2)cc1 [Compound 36] | < 1 µM
37 | CCc1nc2ccccn2c1C(=O)NCc1ccc(N2CCN(c3ccc(Cl)cc3)CC2)cc1 [Compound 37] | < 1 µM
38 | CCc1nc2c(C)cccn2c1C(=O)NCc1ccc(N2CCN(c3ccc(OC)cc3)CC2)cc1 [Compound 38] | < 1 µM
39 | CCc1nc2c(C)cccn2c1C(=O)NCc1ccc(N2CCN(c3ccc(C)cc3)CC2)cc1 [Compound 39] | < 1 µM
40 | CCc1nc2c(C)cccn2c1C(=O)NCc1ccc(N2CCN(c3ccc(C(F)(F)F)cc3)CC2)cc1 [Compound 40] | < 1 µM
41 | CCc1nc2c(C)cccn2c1C(=O)NCc1ccc(N2CCN(c3ccccc3)CC2)cc1 [Compound 41] | < 1 µM
42 | CCc1nc2ccc(F)cn2c1C(=O)NCc1ccc(N2CCN(c3ccc(OC(F)(F)F)cc3)CC2)cc1 [Compound 42] | < 1 µM
43 | CCc1nc2c(C)cccn2c1C(=O)NCc1ccc(N2CCN(c3ccc(Cl)cc3)CC2)cc1 [Compound 43] | < 1 µM
44 | CCc1nc2c(C)cccn2c1C(=O)NCc1ccc(N2CCN(c3ccc(OC(F)(F)F)cc3)CC2)cc1 [Compound 44] | < 1 µM
45 | CCc1nc2ccc(Cl)cn2c1C(=O)NCc1ccc(N2CCN(c3ccc(Cl)cc3)CC2)cc1 [Compound 45] | < 1 µM
46 | CCc1nc2cc(Cl)ccn2c1C(=O)NCc1ccc(N2CCN(c3ccc(OC)cc3)CC2)cc1 [Compound 46] | < 1 µM
47 | CCc1nc2c(Cl)cccn2c1C(=O)NCc1ccc(N2CCN(c3ccc(Cl)cc3)CC2)cc1 [Compound 47] | < 1 µM
48 | CCc1nc2ccc(Cl)cn2c1C(=O)NCc1ccc(N2CCN(c3ccc(C(F)(F)F)cc3)CC2)cc1 [Compound 48] | < 1 µM
49 | CCc1nc2c(Cl)cccn2c1C(=O)NCc1ccc(N2CCN(c3ccc(C(F)(F)F)cc3)CC2)cc1 [Compound 49] | < 1 µM
50 | CCc1nc2c(Cl)cccn2c1C(=O)NCc1ccc(N2CCN(c3ccc(OC)cc3)CC2)cc1 [Compound 50] | < 1 µM
51 | CCc1nc2cc(C)ccn2c1C(=O)NCc1ccc(N2CCC(c3ccc(C(F)(F)F)cc3)CC2)cc1 [Compound 51] | < 1 µM
52 | CCc1nc2cc(C)ccn2c1C(=O)NCc1ccc(N2CCC(c3ccc(Cl)cc3)CC2)cc1 [Compound 52] | < 1 µM

Row | Compound | MIC80
53 | CCc1nc2c(Cl)cccn2c1C(=O)NCc1ccc(N2CCC(c3ccc(Cl)cc3)CC2)cc1 [Compound 53] | < 1 µM
54 | CCc1nc2cc(C)ccn2c1C(=O)NCc1ccc(N2CCN(c3ccc(OC)cc3)CC2)cc1 [Compound 54] | < 1 µM
55 | CCc1nc2ccc(C)cn2c1C(=O)NCc1ccc(N2CCN(c3ccc(OC(F)(F)F)cc3)CC2)cc1 [Compound 55] | < 1 µM
56 | CCc1nc2ccc(C)cn2c1C(=O)NCc1ccc(N2CCN(c3ccc(OC)cc3)CC2)cc1 [Compound 56] | < 1 µM
57 | CCc1nc2cc(OC)ccn2c1C(=O)NCc1ccc(N2CCN(c3ccc(C(F)(F)F)cc3)CC2)cc1 [Compound 57] | < 1 µM
58 | CCc1nc2c(OC)cccn2c1C(=O)NCc1ccc(N2CCN(c3ccc(OC)cc3)CC2)cc1 [Compound 58] | 1 to 20 µM (≈ 0.5 to 9.99 µg/mL)
59 | CCc1nc2cc(C)ccn2c1C(=O)NCc1ccc(N2CCN(c3ccc(Cl)cc3)CC2)cc1 [Compound 59] | < 1 µM
60 | CCc1nc2ccc(C)cn2c1C(=O)NCc1ccc(N2CCN(c3ccc(C(F)(F)F)cc3)CC2)cc1 [Compound 60] | < 1 µM
61 | CCc1nc2cc(C)ccn2c1C(=O)NCc1ccc(N2CCN(c3ccc(C(F)(F)F)cc3)CC2)cc1 [Compound 61] | < 1 µM
62 | CCc1nc2ccccn2c1C(=O)NCc1ccc(N2CCN(c3ccccc3)CC2)cc1 [Compound 62] | < 1 µM
63 | CCc1nc2c(F)cccn2c1C(=O)NCc1ccc(N2CCN(c3ccc(Cl)cc3)CC2)cc1 [Compound 63] | < 1 µM
64 | CCc1nc2c(Cl)cccn2c1C(=O)NCc1ccc(N2CCN(c3ccccc3)CC2)cc1 [Compound 64] | < 1 µM
65 | CCc1nc2ccc(C)cn2c1C(=O)NCc1ccc(N2CCN(c3ccc(C)cc3)CC2)cc1 [Compound 65] | < 1 µM
66 | CCc1nc2ccc(C)cn2c1C(=O)NCc1ccc(N2CCN(c3ccc(Cl)cc3)CC2)cc1 [Compound 66] | < 1 µM
67 | CCc1nc2cc(C)ccn2c1C(=O)NCc1ccc(N2CCN(c3ccccc3)CC2)cc1 [Compound 67] | < 1 µM
68 | CCc1nc2ccc(Cl)cn2c1C(=O)NCc1ccc(N2CCN(c3ccccc3)CC2)cc1 [Compound 68] | < 1 µM
69 | CCc1nc2cc(F)ccn2c1C(=O)NCc1ccc(N2CCN(c3ccccc3)CC2)cc1 [Compound 69] | < 1 µM
70 | CCc1nc2c(F)cccn2c1C(=O)NCc1ccc(N2CCN(c3ccccc3)CC2)cc1 [Compound 70] | < 1 µM
71 | CCc1nc2ccc(F)cn2c1C(=O)NCc1ccc(N2CCN(c3ccccc3)CC2)cc1 [Compound 71] | < 1 µM
72 | CCc1nc2ccc(Br)cn2c1C(=O)NCc1ccc(N2CCC(c3ccc(F)cc3)CC2)cc1 [Compound 72] | < 1 µM
73 | CCc1nc2c(C)cccn2c1C(=O)NCc1ccc(N2CCC(c3ccccc3)CC2)cc1 [Compound 73] | < 1 µM
74 | CCc1nc2cc(F)ccn2c1C(=O)NCc1ccc(N2CCN(c3ccc(OC)cc3)CC2)cc1 [Compound 74] | < 1 µM
75 | CCc1nc2ccc(F)cn2c1C(=O)NCc1ccc(N2CCN(c3ccc(C)cc3)CC2)cc1 [Compound 75] | < 1 µM
76 | CCc1nc2ccc(F)cn2c1C(=O)NCc1ccc(N2CCN(c3ccc(C(F)(F)F)cc3)CC2)cc1 [Compound 76] | < 1 µM
77 | CCc1nc2ccc(F)cn2c1C(=O)NCc1ccc(N2CCN(c3ccc(Cl)cc3)CC2)cc1 [Compound 77] | < 1 µM
